Laboratory results from US7659277B2, “Ubiquitin ligase inhibitors and methods related thereto” (Proteologies, Ltd., priority 2003, dated 2010).
Where two headings read alike, the source gives them in different places.

How the values were obtained:
[1] = target: T1, POSH (Homo sapiens, UniProt Q7Z6J0); experiment: Selectivity (% A in 1 μM), ubiquitin ligase activity of POSH; type: biochemical; details: read-out: Selectivity (% A* in 1 μM) POSH
T1 construct: GST-POSH lot NB81/p.118 3.6 mg/ml; fused on or other part: GST tag, used for detection with anti-GST XL665
T1 sequence (Q7Z6J0 1-269 limits assumed): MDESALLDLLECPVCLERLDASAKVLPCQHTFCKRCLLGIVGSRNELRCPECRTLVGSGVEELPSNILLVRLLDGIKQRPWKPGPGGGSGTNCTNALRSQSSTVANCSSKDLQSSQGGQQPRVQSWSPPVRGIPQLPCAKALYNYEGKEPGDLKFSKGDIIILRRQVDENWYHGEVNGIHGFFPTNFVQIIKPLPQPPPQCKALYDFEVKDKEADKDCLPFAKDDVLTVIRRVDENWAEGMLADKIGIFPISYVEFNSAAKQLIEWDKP
Protocol: Experimental Protocols: 1. HTS Screening Assay Procedure • Microplates 10109D to 10114D compounds at 1 mM. • (Controls in column 1). • All compounds were perchase from ChemBridge corporation: ChemBridge corporation 16981 Via Tazon, Suite G San Diego, Calif. 92127 a. Microplates Labeling • Put labels to 6 PS U-bottom clear microplate. • Put labels to 18 black microplates (triplicats). b. Microplates Preparation • Put 100 μl GST-POSH at 33 nM in wells of the clear PS U-bottom microplates (exept wells A1-D1). • Negative control: place 100 μl dH2O in wells A1-D1. • (Positive control: place 100 μl GST-POSH at 33 nM in wells E1-H1). • Put 8 μl enzymes solution ×4 to black microplates (column 1 to 11). c. Incubation of E3 with Compounds • Transfer 5 μl of compounds (at 1 mM) to the microplates containing 100 μl GST-POSH. • Add 5 μl of DMSO to controls column 1. • Incubation 30 minutes at RT. d. […] 2. […] Microplates Labeling • Put labels to 4 clear PP clear microplate (18.2 μM, 9.1 uM, 1.82 uM, 910 nM,). • Put labels to 5 clear PS U-bottom clear microplate 4.44 μM, 909, 444, 91 and 44 nM) • Put labels to 15 black microplates (triplicates). f. Original Microplate Dilutions • Put DMSO 40 μl to (18.2 μM, 1.82 uM plates) and 20 ul to (9.1 uM, 910 nM plates. • Mix by pipetation the original microplate (3× up and down 45 μl). • Transfer 10 μl of compounds from the original microplate (at 91 μM) to the next microplate (=18.2 μM) on splitting apparatus. • Mix by pipetation the 18.2 uM microplate (3× up and down 45 μl). • Transfer 20 μl of compounds from the 18.2 uM microplate to the next microplate (=9.1 μM) on splitting apparatus. • Mix by pipetation the 9.1 uM microplate (3× up and down 45 μl). • Transfer 10 μl of compounds from the 9.1 uM microplate to the next microplate (=1.82 μM) on splitting apparatus. • Mix by pipetation the 1.82 uM microplate (3× up and down 45 μl). • Transfer 20 μl of compounds from the 1.82 uM microplate to the next microplate (=910 nM) on splitting apparatus • Mix by pipetation. g. Microplates Preparation • Put 123 μl GST-POSH at 33 nM in wells of the 5 clear PS U-bottom clear microplates. • Positive control: place 123 μl GST-POSH at 33 nM in well A12-h12 13 μl DMSO. • Negative control: place 123 μl dH2O in well B1 and 13 μl DMSO. • Put 8 μl enzymes solution ×4 to 15 black microplates. • Controls: put 8 μl enzymes solution ×4 to wells A1 to F1. h. Incubation of POSH with Compounds • Take 7 μl of compounds at original plate (91 μM) and put into the 4.44 μM labeled microplate containing 123 μl GST-POSH, on splitting apparatus. • Mix by pipetation (3× up and down 115 μl), note time. • Take 7 μl of compounds at 18.2 μM and put into the 910 nM labeled microplate containing 123 μl GST-POSH, on splitting apparatus. • Mix by pipetation (3× up and down 115 μl), note time. • Take 7 μl of compounds at 9.1 μM and put into the 444 nM labeled microplate containing 123 μl GST-POSH, on splitting apparatus. • Mix by pipetation (3× up and down 115 μl), note time. • Take 7 μl of compounds at […] and put into the 91 nM labeled microplate containing 123 μl GST-POSH, on splitting apparatus. • Mix by pipetation (3× up and down 115 μl), note time. • Take 7 μl of compounds at 91.0 nM and put into the 44 nM labeled microplate containing 123 μl GST-POSH, on splitting apparatus. • Mix by pipetation (3× up and down 115 μl), note time. • Incubation 30 minutes at RT. i.

[2] = test system: HIV-1; experiment: HIV maturation (budding) in virus-like particle assay, HIV-1 p24 antigen ELISA; type: cell-based; details: Human immunodeficiency virus 1, read-out: Budding (3 μM)
Text: Compounds were further assessed for effects on maturation of HIV particles in a virus-like particle assay.

[3] = target: c-cbl (Homo sapiens, UniProt P22681); experiment: Selectivity (% A in 1 μM), ubiquitin ligase activity of c-cbl; type: biochemical; details: % activity at 1 μM compound; control is related to 100% activity; HTS protocol
[4] = test system: E2 protein; type: biochemical; details: % activity at 1 μM compound; control is related to 100% activity; HTS protocol
[5] = % activity at 1 μM compound, control is related to 100% activity, HTS protocol

| SMILES | remaining activity at 1 µM [1] | activity at 3 µM [2] | remaining activity at 1 µM [1, 5] | remaining activity at 1 µM [3] | Selectivity (% A* in 1 μM) E2 [4] |
| --- | --- | --- | --- | --- | --- |
| CCCCCCOc1ccc(C=C2C(=O)NC(=S)NC2=O)cc1 [Compound 15] | 14% | 52% | – | – | – |
| CC(C)(C)c1ccc(O)c(/N=C/C=C/c2cccc([N+](=O)[O-])c2)c1 [Compound 59] | 26% | 61% | – | – | – |
| O=C1C=CC(=O)N1c1ccc(OC(F)(F)C(F)F)c(N2C(=O)C=CC2=O)c1 [Compound 20] | 33% | 60% | – | – | – |
| C=CCN1C(=O)NC(=O)/C(=C\c2ccccc2)C1=O [Compound 2] | 50% | 66% | – | – | – |
| O=C1NC(=O)C(=Cc2ccc(-c3cc(Cl)ccc3Cl)o2)C(=O)N1 [Compound 1] | 19% | 46% | – | – | – |
| OCc1cccc(/N=C/c2cccc(O)c2O)c1 [Compound 57] | 20% | 61% | – | – | – |
| O=C1C(=Cc2ccc(-c3ccc(Br)cc3)o2)C(=O)c2ccccc21 [Compound 38] | 17% | 38% | – | – | – |
| Cc1c(C(=O)/C=C/c2ccccc2)c2cc(O)ccc2n1C [Compound 75] | 103% | 39% | – | – | – |
| O=C1S/C(=C/c2ccc(-c3ccc([N+](=O)[O-])cc3Cl)o2)C(=O)N1c1ccccc1 [Compound 27] | 6% | 48% | – | – | – |
| Cc1ccc(/N=C/c2cc(Br)cc(Br)c2O)c(C)c1 [Compound 54] | 30% | 54% | – | – | – |
| C=CCN1C(=O)/C(=C/c2c3ccccc3cc3ccccc23)SC1=S [Compound 109] | 67% | 60% | – | – | – |
| COc1ccc(/C=N/c2ccc(Nc3ccccc3)cc2)c2ccccc12 [Compound 55] | 40% | 55% | – | – | – |
| Cc1cc([N+](=O)[O-])ccc1/N=C/c1ccc[nH]1 [Compound 70] | 151% | 57% | – | – | – |
| N=C1NC(=O)/C(=C\c2ccc(-c3ccc(I)cc3)o2)S1 [Compound 29] | 42% | 63% | – | – | – |
| O=C1CC(NNc2ccccc2)C(=O)N1c1cccc(Cl)c1 (stereo not shown) [Compound 22] | – | – | 26% | 64% | 91% |
| CC(=O)Nc1ccc(-c2cc3ccccn3c2)cc1 [Compound 78] | – | – | 22% | 151% | 43% |
| Oc1c(Br)cc(Cl)cc1/C=N/c1ccccc1Br [Compound 58] | – | – | 40% | 115% | 108% |
| CC(=C\c1ccccc1)/C=C1/SC(=N)NC1=O [Compound 31] | – | – | 105% | 108% | 104% |
| COc1ccc(CNc2cccc(N(C)C)c2)cc1 [Compound 106] | – | – | 27% | 112% | 88% |
| Cc1cc(C)c(O)c(/N=C/c2c(O)ccc3ccccc23)c1 [Compound 65] | – | – | 8% | 101% | 65% |
| O=[N+]([O-])c1ccc(-c2ccc(/N=C/c3c(O)ccc4ccccc34)cc2)cc1 [Compound 60] | – | – | 22% | 110% | 53% |
| Cc1ccc2nc(-c3ccc(/N=C/c4ccc([N+](=O)[O-])s4)cc3)sc2c1 [Compound 72] | – | – | 39% | 95% | 77% |
| COc1cc(/C=C2\SC(=O)NC2=O)ccc1OCc1ccc(Cl)cc1Cl [Compound 34] | – | – | 23% | 135% | 93% |
| Oc1c(Br)cc(Cl)cc1/C=N/c1ccccn1 [Compound 64] | – | – | 63% | 118% | 117% |
| O=c1/c(=C/c2cccc([N+](=O)[O-])c2O)sc2nc3ccccc3n12 [Compound 51] | – | – | 51% | 104% | 113% |
